Results as given in US6376169B1, “Method for diagnosing a vascular condition” (Queens University at Kingston, priority 1998, dated 2002).
“Also recorded” adds a separate entry of the source. Counter-ions that a name gives are not always drawn. Like-named read-outs stand apart in the source and are kept apart here.

Experiments:
RTP/Drg1 protein = assay: Western blot of RTP/Drg1 protein in MDA-MB-231 cells; format: cell-based, human; details: 20% oxygen, up to 72 h; 100 μM cobalt chloride, 30 mM Tiron or 100 μM DFO
Method: (§1) To determine whether hypoxia regulates the expression of certain genes (e.g., PAI-1, uPAR, RTP/Drg1) via an iron-containing heme protein, cells were cultured for up to 72 h at 20% oxygen in the presence or absence of either 100 μM cobalt chloride, or 30 mM sodium 4,5-dihydroxybenzene-1,3-disulfonate (Tiron), or 100 μM desferrioxamine mesylate (DFO) (Sigma Chemical CO., St. Louis, Mo.). Further confirmation of the role of a heme protein in hypoxic responses can be achieved by culturing cells under hypoxia in the presence of carbon monoxide, which maintains the heme protein in the oxy state and thereby blocks heme protein-mediated hypoxic responses. Thus, cells were also cultured for 24 h at 37° C. under hypoxic conditions in the presence of 30% carbon monoxide.
Western Blot Analysis. To examine levels of RTP/Drg1 protein, cells were lysed with buffer containing 40 mM HEPES pH 7.2, 100 mM NaCl, 20% glycerol, 0.1 mM EDTA pH 8.0, 0.2% Triton X-100 (polyoxyethylene (10) isooctylphenyl ether), 1 mM DTT, and 2 mM PMSF, and centrifuged briefly at 4° C. The supernatants were collected and stored at −80° C. until use. SDS-PAGE was performed and resolved proteins were transferred to Immobilon-P membranes (Millipore Corp., Bedford, Mass.) using a semi-dry transfer cell (Bio-Rad Laboratories, Mississauga, ON). Membranes were blocked by incubation overnight at 4° C. in a PBS-buffered solution containing 0.01% Tween 20 (polyoxyethylene(20) sorbitan monolaurate) (PBS-T) and 5% casein. The blots were then incubated with polyclonal rabbit anti-Drg1 antiserum followed by incubation with a peroxidase labeled goat anti-rabbit IgG secondary antibody (Vector Lab. Inc., Burlingame, Calif.). Antigen was detected by enhanced chemiluminescence (ECL, Amersham Canada Inc., Oakville, ON) and exposure of the membrane onto Dupont Reflection NEF film (Dupont Canada, Inc., Mississauga ON).

RTP/Drg1 mRNA = assay: Northern blot of RTP/Drg1 mRNA in MDA-MB-231 cells; format: cell-based, human; details: 20% oxygen, up to 72 h; 100 μM cobalt chloride, 30 mM Tiron or 100 μM DFO
Method: as §1
Northern Blot Analysis. Total RNA was isolated from cell lines as described above. Aliquots of 20 μg were denatured and subjected to electrophoresis in 1% agarose-formaldehyde gels (Sambrook, J., Fritsch, E. F., and Maniatis, T. Molecular Cloning: A Laboratory Manual, Cold Spring Harbor Laboratory, Cold Spring Harbor, N.Y. (1989)). RNA was transferred to nylon membranes (Micron Separations, Inc., Westboro, Mass.). After prehybridization at 42° C. for 2-3 h in 50% formamide, 5×Denhardt's solution, 0.5% sodium dodecyl sulfate (SDS), 6×SSC (1×SSC: 0.15M NaCl, 15 mM sodium citrate, pH 7.0), and 100 μg/mL denatured salmon sperm DNA, membranes were hybridized for a period of time of overnight (˜18 h) to about 72 h at 42° C. with a cDNA probe (e.g., RTP/Drg1, PAI-1 (PAI-1 cDNA provided by Dr. Keith McCrae, Temple University School of Medicine, Philadelphia, Pa.), uPAR (Higazi A, et al., J Biol Chem 266:12752, (1995)) pre-labeled with [^32P]-dCTP using a Pharmacia Oligolabelling kit (Pharmacia Biotech, Piscataway, N.J.). The hybridization solution contained 6×SSC, 0.5% SDS, 100 μg/mL denatured salmon sperm DNA, 50% formamide and cDNA probe. After hybridization, the membranes were washed with 2×SSC and 0.5% SDS at room temperature for 15 min, 2×SSC and 0.1% SDS at room temperature for 15 min, and 0.1×SSC and 0.5% SDS for 30 min. Dupont Reflection NEF film (Dupont Canada, Inc., Mississauga, ON) was exposed to the membranes for 1-3 days at −80° C. Bands on radiographic film were analyzed using a SigmaGel gel analysis software package (Jandel Scientific Software, San Rafael, Calif.).

hepatic cytochromes P450 = details: literature; cited from earlier work
RTP/Drg1 [1] = details: endothelial cells treated with homocysteine; cited from earlier work
RTP/Drg1 [2] = details: A549 cells exposed to nickel; cited from earlier work
APO-induced erections = assay: Apomorphine (APO) bioassay of erectile function; format: in vivo, Wistar rats
From the text: 16 adult male Wistar rats from Charles River Laboratories (Montreal, Quebec) weighing 300-350 g were used in the investigation. The animals were divided into two study groups. The animals were individually housed in a climate-controlled room under a 12-hour light/dark cycle and allowed access to food (Purina Lab Chow) and water ad libitum. All procedures were in accordance with the guidelines set out by the Canadian Council on Animal Care. The animals were allowed to acclimate 5 days prior to testing and were handled by the researcher during this time.
The apomorphine (APO) bioassay of erectile function was performed in an isolated area. […] The animals were each placed in a separate hanging wire test cage in an isolated, dark and sound proof room and allowed to acclimatize to the surroundings for 10 minutes. Each rat received 80 ug/kg APO (Sigma Chemical Co., St. Louis, Mo.) prepared in physiological saline containing […] ascorbic acid via subcutaneous (s.c.) injection (lml/kg at the nape of the neck). Erectile and yawning responses to APO were monitored and recorded (30 minutes) in an adjacent room via a video monitoring system.
(§2) An erection was counted when an engorged glans penis and distal shaft were exposed. A wide opening of the mouth associated with appropriate respiratory movement identified a yawn. […] Rats with unsatisfactory control erectile response were removed from further study.
Yawns were not altered in either protocol (data not shown).
The 270 mg/kg dose was prepared, requiring initial heating and stirring. This dose was administered in a single injection (1 ml/kg, i.p. of a 270 mg/ml concentration) half an hour prior to the commencement of APO-induced erectile monitoring.
At one week intervals, rats were given single, increasing doses of flutamide (25, 35, or 50 mg/kg) (Sigma Chemical Co., St. Louis, Mo.). For each dose, flutamide was dissolved in peanut oil and administered via i.p injection in a volume of 1 ml/kg. […] Each dose of flutamide was given 1 week after the previous dose, to allow APO-induced erections to return to control levels.
From the group of 8 rats, 4 rats were randomly selected.
Testosterone was administered in an attempt to recover APO-induced erections to control levels.
The required testosterone concentrations were prepared using 100 mg/ml testosterone propionate (Taro Pharmaceuticals, Brarnalea, ON.) diluted in peanut oil. Each dose was administered in a 1 ml/kg volume.
For each APO testing protocol, the average number of erections and standard deviation was determined. […] Therefore, each rat served as its own control. Treated values were compared to control values using Student's paired t-test, except where noted in Study 2b.

APO-induced yawns = assay: APO-induced yawning response; format: in vivo, Wistar rats
Method: The apomorphine (APO) bioassay of erectile function was performed in an isolated area. The rat model of APO-induced erections used to assess the effects of p,p-DDE and flutamide on erectile function was based on the model developed by Heaton et al J Urol. 145:1099 (1991). The animals were each placed in a separate hanging wire test cage in an isolated, dark and sound proof room and allowed to acclimatize to the surroundings for 10 minutes. Each rat received 80 ug/kg APO (Sigma Chemical Co., St. Louis, Mo.) prepared in physiological saline containing […] ascorbic acid via subcutaneous (s.c.) injection (lml/kg at the nape of the neck). Erectile and yawning responses to APO were monitored and recorded (30 minutes) in an adjacent room via a video monitoring system.
as §2

[3] = pubertal or adults rats, Kelce et al; cited from earlier work
uPAR mRNA = assay: Northern blot of uPAR mRNA in HTR-8/SVneo cells; format: cell-based, human; details: 10 ng/ml VEGF, 24 h, normoxic conditions
Method: as §1, with “Thus, cells were also cultured for 24 h at 37° C. under hypoxic conditions in the presence of 30% carbon monoxide.” left out
Northern Blot Analysis. Total RNA was isolated from cell lines as described above. […] RNA was transferred to nylon membranes (Micron Separations, Inc., Westboro, Mass.). […] The hybridization solution contained 6×SSC, 0.5% SDS, 100 μg/mL denatured salmon sperm DNA, 50% formamide and cDNA probe. After hybridization, the membranes were washed with 2×SSC and 0.5% SDS at room temperature for 15 min, 2×SSC and 0.1% SDS at room temperature for 15 min, and 0.1×SSC and 0.5% SDS for 30 min. Dupont Reflection NEF film (Dupont Canada, Inc., Mississauga, ON) was exposed to the membranes for 1-3 days at −80° C. Bands on radiographic film were analyzed using a SigmaGel gel analysis software package (Jandel Scientific Software, San Rafael, Calif.).

uPAR = details: vascular endothelial cells; cited from earlier work

CC(=O)N(O)CCCCCNC(=O)CCC(=O)N(O)CCCCCNC(=O)CCC(=O)N(O)CCCCCN [DFO, desferrioxamine mesylate]
levels of RTP/Drg1 protein (RTP/Drg1 protein): time-dependent increases in RTP/Drg1 protein | levels of RTP/Drg1 mRNA (RTP/Drg1 mRNA): time-dependent increases in RTP/Drg1 mRNA

CC(C)C(=O)Nc1ccc([N+](=O)[O-])c(C(F)(F)F)c1 [flutamide]
metabolism upon administration / absorption (hepatic cytochromes P450): rapidly metabolised by hepatic cytochromes P450

N[C@@H](CCS)C(=O)O [homocysteine]
expression of RTP/Drg1 (RTP/Drg1 [1]): increased

[Ni] [nickel]
expression of RTP/Drg1 (RTP/Drg1 [2]): increased

ClC(Cl)=C(c1ccc(Cl)cc1)c1ccc(Cl)cc1 [p,p-DDE]
APO-induced erections (APO-induced erections; 270 mg/kg p,p-DDE i.p., 5 hour testing period, Study 1): no significant effect | APO-induced erectile response (APO-induced erections; 500 mg/kg p,p-DDE i.p., 3 hours after administration, Study 1): significant decrease | APO-induced erectile response two weeks after administration (APO-induced erections; 500 mg/kg p,p-DDE vs control and 50 mg/kg flutamide): significantly different from controls and from the flutamide two week response; also recorded: remained significantly lower than controls; also recorded: significantly different from both control and 50 mg/kg flutamide responses | APO-induced erections, time course (APO-induced erections; single dose 500 mg/kg p,p-DDE, 0.5, 4, 12, 24 hours and 2 weeks, 500 mg/kg): significantly decreased; also recorded: persistently suppressed | APO-induced yawns (APO-induced yawns; 500 mg/kg p,p-DDE, two week assessment): not significantly different from control levels; also recorded: little effect | APO-induced yawning responses (APO-induced yawns; p,p-DDE treatment, Study 1): not altered | metabolism upon administration / absorption (hepatic cytochromes P450): not metabolised | plasma testosterone levels [3]: did not alter plasma testosterone levels

CCC(=O)O[C@H]1CC[C@H]2[C@@H]3CCC4=CC(=O)CC[C@]4(C)[C@H]3CC[C@]12C [testosterone, testosterone propionate]
APO-induced erections in p,p-DDE treated rats after testosterone supplementation (APO-induced erections; 480 ug/kg, 1.2 or 2.4 mg/kg i.p., 0.5, 4, 12 hours, two weeks after p,p-DDE): no significant increases in erections; also recorded: remained significantly decreased at most of the time points; also recorded: failed to return APO-induced erections to control levels | APO-induced yawning responses after testosterone supplementation (APO-induced yawns; p,p-DDE treated rats, 12 hour test periods): did not change the status of yawning responses

VEGF
induction of uPAR mRNA (uPAR mRNA): did not result in increased levels of uPAR transcript; also recorded: does not induce | expression of uPAR (uPAR): increases the expression of uPAR
